Assay results published in publication PMC6804006, “Synthesis, Biological Activities and Docking Studies of Novel 4-(Arylaminomethyl)benzamide Derivatives as Potential Tyrosine Kinase Inhibitors” (Molecules, 2019).

Key:
InsR = target: T1, InsR (Homo sapiens, UniProt P06213); test: ADP-Glo kinase inhibitory assay, InsR; format: biochemical; conditions: for inhibition at 0.01 µM: read-out: % Inhibition at 10 nM, InsR
T1 construct: purchased Promega
Procedure: (§1) We investigated the kinase selectivity of targeted compounds against eight receptor tyrosine kinases including EGFR (epidermal growth factor receptor), HER-2 and HER4 (human epidermal growth factor receptor), IGF1R (insulin like growth factor 1 receptor), InsR (gene insulin receptor), KDR (kinase insert domain receptor), and PDGFRa and PDGFRb (platelet-derived growth factor receptors). The assay was performed using the Kinase-Glo Plus luminescence kinase assay kit (TK-1+ADP-Glo™, Promega, San Diego, CA, USA). It measures kinase activity by quantitating the amount of ATP remaining in solution following a kinase reaction.
(§2) The assay was performed using a Kinase Selectivity Profiling System (TK-1+ADP-Glo™ Assay and TK-2+ADP-Glo™ Assay, Promega), where the kinase activity was measured by quantifying the amount of ADP produced during a kinase reaction. The assay is performed in two steps; firstly, after the kinase reaction, an equal volume of ADP-Glo™ Reagent is added to terminate the kinase reaction and deplete the remaining ATP. Secondly, the Kinase Detection Reagent is added to simultaneously convert ADP to ATP and allow the newly synthesized ATP to be measured using a luciferase/luciferin reaction. The luminescent signal generated is proportional to the ADP concentration produced and is correlated with kinase activity. Our compounds were diluted with kinase buffer (5% DMSO), and 1 μL of the dilution was added to a 5-μL reaction so that the final concentration of DMSO was 1% in all of reactions. All of the enzymatic reactions were conducted at 23 °C for 60 min. The 5-μL reaction mixture contained 1µL of the compound solution, 2µL of the enzyme solution, and 2 µL of kinase substrate. After the enzymatic reaction, 5 µL of ADP-Glo™ Reagent (Promega, USA) was added to each reaction, and the plate was incubated for 40 min at 23 °C. Then, 10 µL of Kinase Detection Reagent (Promega, USA) was added to each reaction, and the plate was incubated for 30 min at 23 °C. Luminescence signal was measured using an Infinite M 200 plate reader (Tecan, Switzerland).
(§3) Kinase activity assays were performed in duplicate at each concentration. The luminescence data were analyzed using the computer software, Magellan™. The difference between luminescence intensities in the absence of Kinase (Lut) and in the presence of Kinase (Luc) was defined as 100% activity (Lut − Luc).

HER-2 = target: T2, HER-2 (Homo sapiens, UniProt P04626); test: ADP-Glo kinase inhibitory assay, HER-2; format: biochemical; conditions: for inhibition at 0.01 µM: read-out: % Inhibition at 10 nM, HER-2
T2 construct: purchased Promega
Procedure: as §1, §2, §3

HER-4 = target: T3, HER-4 (Homo sapiens, UniProt Q15303); test: ADP-Glo kinase inhibitory assay, HER-4; format: biochemical; conditions: for inhibition at 0.01 µM: read-out: % Inhibition at 10 nM, HER-4; for inhibitory activity in relation to HER-4, in words: compared with imatinib
T3 construct: purchased Promega
T3 sequence (Q15303 26-1308): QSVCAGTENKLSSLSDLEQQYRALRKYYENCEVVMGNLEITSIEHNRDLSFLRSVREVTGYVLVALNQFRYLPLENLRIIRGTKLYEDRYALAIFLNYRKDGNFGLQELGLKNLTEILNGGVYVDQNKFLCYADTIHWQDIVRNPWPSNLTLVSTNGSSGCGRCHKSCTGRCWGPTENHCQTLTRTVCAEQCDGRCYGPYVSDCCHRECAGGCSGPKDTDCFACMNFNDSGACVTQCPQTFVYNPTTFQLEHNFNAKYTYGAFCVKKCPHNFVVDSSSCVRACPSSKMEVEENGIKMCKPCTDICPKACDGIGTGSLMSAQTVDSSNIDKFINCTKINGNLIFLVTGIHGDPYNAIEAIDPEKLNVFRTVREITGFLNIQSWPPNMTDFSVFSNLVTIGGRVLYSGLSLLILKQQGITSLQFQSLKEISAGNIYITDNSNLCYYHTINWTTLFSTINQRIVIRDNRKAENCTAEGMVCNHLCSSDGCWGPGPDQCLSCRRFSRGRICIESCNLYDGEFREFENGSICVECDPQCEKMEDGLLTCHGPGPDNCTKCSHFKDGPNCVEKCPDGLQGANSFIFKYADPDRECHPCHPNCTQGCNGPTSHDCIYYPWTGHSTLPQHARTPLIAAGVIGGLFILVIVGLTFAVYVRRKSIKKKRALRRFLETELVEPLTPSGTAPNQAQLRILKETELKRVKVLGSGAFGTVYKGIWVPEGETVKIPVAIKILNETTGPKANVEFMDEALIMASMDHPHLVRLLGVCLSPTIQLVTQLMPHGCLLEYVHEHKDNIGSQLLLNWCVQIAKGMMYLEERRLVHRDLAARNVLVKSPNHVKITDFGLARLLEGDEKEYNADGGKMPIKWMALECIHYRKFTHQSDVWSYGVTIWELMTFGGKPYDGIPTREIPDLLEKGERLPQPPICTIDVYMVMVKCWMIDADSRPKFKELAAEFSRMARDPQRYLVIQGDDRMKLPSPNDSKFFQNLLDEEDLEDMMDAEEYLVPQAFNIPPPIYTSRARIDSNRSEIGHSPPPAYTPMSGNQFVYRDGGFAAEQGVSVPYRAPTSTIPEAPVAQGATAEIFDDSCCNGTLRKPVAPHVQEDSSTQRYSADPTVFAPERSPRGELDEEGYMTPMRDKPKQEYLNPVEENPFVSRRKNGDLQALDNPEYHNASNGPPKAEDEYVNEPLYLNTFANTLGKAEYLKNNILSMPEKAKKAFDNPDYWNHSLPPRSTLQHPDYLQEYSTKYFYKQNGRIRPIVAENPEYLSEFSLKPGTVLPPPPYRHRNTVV
Procedure: as §1, §2, §3

PDGFRb = target: T4, PDGFRb (Homo sapiens, UniProt P09619); test: ADP-Glo kinase inhibitory assay, PDGFRb; format: biochemical; conditions: for inhibition at 0.01 µM: read-out: % Inhibition at 10 nM, PDGFRb
T4 construct: purchased Promega
Procedure: as §1, §2, §3

KDR (VEGFR2) = target: T5, KDR (VEGFR2) (Homo sapiens, UniProt P35968); test: ADP-Glo kinase inhibitory assay, KDR; format: biochemical; conditions: for inhibition at 0.01 µM: 10 nM
T5 construct: purchased Promega
T5 sequence (P35968 20-1356): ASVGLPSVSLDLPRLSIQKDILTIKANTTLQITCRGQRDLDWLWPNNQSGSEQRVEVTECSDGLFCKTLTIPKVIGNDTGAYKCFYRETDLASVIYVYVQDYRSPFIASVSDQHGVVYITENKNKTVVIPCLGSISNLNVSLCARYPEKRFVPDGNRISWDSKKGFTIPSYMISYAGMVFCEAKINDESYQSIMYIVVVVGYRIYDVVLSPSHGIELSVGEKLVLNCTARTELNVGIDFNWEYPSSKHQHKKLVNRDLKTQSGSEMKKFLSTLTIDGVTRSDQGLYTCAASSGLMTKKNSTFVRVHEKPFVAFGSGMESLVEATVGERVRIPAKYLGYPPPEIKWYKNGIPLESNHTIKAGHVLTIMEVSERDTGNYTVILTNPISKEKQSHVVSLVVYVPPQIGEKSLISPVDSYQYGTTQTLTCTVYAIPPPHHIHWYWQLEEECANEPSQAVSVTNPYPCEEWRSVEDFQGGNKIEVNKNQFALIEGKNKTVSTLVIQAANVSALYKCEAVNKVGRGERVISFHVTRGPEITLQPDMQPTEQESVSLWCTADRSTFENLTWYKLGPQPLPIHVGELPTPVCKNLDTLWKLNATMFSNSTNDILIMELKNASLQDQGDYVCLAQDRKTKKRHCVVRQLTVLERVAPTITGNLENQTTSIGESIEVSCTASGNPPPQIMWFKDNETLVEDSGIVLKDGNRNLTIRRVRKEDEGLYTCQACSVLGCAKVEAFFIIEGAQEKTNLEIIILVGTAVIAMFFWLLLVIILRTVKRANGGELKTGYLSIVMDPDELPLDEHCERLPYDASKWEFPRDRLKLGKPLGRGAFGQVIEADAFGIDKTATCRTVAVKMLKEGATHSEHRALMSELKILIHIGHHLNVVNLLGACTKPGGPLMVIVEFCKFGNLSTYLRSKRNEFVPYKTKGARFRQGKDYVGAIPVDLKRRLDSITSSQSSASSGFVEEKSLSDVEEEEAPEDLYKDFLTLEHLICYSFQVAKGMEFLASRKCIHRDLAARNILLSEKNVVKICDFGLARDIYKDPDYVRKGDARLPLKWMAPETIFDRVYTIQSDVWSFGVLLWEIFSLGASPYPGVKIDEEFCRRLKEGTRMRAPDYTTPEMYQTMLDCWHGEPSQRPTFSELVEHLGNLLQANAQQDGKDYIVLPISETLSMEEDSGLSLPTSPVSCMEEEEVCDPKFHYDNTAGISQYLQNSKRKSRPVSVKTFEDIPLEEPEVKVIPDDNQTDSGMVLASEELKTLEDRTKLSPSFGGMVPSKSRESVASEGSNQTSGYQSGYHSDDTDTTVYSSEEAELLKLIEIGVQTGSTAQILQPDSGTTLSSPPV
Procedure: as §1
Vascular endothelial growth factor receptor 2 (VEGFR2), also called kinase insert domain receptor (KDR), is a tyrosine kinase receptor for VEGFs that plays a central role in tumor angiogenesis; therefore, the inhibition of VEGFR2 is a promising therapeutic strategy for inhibiting angiogenesis and tumor growth.
as §2, §3

EGFR = target: T6, EGFR (Homo sapiens, UniProt P00533); test: ADP-Glo kinase inhibitory assay, EGFR; format: biochemical; conditions: for inhibition at 0.01 µM: read-out: % Inhibition at 10 nM, EGFR
T6 construct: purchased Promega
Procedure: as §1, §2, §3

IGF1R = target: T7, IGF1R (Homo sapiens, UniProt P08069); test: ADP-Glo kinase inhibitory assay, IGF1R; format: biochemical; conditions: for inhibition at 0.01 µM: read-out: % Inhibition at 10 nM, IGF1R
T7 construct: purchased Promega
T7 sequence (P08069 31-1367): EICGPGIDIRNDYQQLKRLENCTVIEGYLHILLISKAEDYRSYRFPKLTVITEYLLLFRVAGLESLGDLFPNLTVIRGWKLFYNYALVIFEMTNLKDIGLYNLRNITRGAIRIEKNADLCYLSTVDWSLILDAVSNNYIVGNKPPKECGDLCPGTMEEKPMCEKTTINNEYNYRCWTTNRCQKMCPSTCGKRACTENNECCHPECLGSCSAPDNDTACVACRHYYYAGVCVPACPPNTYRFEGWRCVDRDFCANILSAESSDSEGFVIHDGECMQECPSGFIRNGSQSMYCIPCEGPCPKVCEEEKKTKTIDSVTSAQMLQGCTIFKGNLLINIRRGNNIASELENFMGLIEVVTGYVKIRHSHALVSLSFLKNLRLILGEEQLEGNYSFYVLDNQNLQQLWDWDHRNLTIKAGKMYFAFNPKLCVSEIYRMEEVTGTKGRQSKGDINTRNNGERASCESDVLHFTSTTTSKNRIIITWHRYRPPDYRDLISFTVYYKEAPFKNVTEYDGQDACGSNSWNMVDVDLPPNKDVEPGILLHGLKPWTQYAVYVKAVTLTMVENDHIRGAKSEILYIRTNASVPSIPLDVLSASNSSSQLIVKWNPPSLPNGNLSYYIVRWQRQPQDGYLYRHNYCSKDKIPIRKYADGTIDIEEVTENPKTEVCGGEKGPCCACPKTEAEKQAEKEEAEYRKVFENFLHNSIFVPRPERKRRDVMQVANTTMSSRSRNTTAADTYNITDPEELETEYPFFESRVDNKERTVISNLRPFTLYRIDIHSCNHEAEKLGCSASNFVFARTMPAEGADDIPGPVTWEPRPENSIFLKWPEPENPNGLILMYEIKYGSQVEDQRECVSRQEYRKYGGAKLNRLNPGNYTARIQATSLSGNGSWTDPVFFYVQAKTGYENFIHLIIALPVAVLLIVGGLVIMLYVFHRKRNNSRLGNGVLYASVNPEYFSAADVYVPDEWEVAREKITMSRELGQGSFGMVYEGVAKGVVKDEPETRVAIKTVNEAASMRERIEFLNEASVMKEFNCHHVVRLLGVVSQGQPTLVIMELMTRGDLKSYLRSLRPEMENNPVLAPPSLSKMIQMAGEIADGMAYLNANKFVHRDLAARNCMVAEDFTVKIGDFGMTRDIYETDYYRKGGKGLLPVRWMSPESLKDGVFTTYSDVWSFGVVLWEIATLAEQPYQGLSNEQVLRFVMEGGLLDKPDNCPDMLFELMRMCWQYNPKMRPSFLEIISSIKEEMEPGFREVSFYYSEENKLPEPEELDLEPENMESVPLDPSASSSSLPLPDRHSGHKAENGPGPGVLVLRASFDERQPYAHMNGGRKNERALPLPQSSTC
Procedure: as §1, §2, §3

PDGFRa = target: T8, PDGFRa (Homo sapiens, UniProt P16234); test: ADP-Glo kinase inhibitory assay, PDGFRa; format: biochemical; conditions: for inhibition at 0.01 µM: read-out: % Inhibition at 10 nM, PDGFRa
T8 construct: purchased Promega
T8 sequence (P16234 24-1089): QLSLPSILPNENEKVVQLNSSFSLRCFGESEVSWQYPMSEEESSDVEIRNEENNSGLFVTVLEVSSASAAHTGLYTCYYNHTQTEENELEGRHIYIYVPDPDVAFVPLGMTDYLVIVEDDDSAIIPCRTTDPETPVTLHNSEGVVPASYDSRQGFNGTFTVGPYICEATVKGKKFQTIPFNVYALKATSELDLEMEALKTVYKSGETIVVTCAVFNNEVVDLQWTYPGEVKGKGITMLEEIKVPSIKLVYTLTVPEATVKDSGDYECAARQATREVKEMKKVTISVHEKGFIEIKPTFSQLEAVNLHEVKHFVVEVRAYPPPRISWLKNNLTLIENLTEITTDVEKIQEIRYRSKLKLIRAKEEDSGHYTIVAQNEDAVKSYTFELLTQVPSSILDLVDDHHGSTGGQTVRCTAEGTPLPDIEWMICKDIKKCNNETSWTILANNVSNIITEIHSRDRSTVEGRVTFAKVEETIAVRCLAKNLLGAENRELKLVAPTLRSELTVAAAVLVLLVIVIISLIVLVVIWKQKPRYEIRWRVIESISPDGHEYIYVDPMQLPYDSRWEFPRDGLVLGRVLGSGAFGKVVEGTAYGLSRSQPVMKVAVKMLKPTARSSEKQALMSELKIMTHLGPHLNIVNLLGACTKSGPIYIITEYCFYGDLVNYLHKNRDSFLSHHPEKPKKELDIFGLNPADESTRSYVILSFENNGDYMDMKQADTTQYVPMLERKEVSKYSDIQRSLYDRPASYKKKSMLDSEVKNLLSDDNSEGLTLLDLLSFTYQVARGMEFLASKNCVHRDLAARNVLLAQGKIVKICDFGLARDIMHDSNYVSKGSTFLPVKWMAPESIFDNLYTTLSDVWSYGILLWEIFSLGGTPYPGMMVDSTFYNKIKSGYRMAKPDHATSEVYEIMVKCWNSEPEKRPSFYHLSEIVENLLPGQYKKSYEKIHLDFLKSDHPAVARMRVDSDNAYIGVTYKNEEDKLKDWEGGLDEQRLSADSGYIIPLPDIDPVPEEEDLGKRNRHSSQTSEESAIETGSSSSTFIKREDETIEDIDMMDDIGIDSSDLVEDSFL
Procedure: as §1, §2, §3

Compound	melting point [°C]	inhibition at 0.01 µM (InsR) [%]	inhibition at 0.01 µM (HER-2) [%]	inhibition at 0.01 µM (HER-4) [%]	inhibition at 0.01 µM (PDGFRb) [%]	inhibition at 0.01 µM (KDR (VEGFR2)) [%]	inhibition at 0.01 µM (EGFR) [%]	inhibition at 0.01 µM (IGF1R) [%]	inhibition at 0.01 µM (PDGFRa) [%]	inhibitory activity in relation to HER-4, in words (HER-4; 10 nM)	other results
CCOC(=O)CC[C@H](NC(=O)c1ccc(CNc2cc([N+](=O)[O-])ccc2C)cc1)C(=O)OCC [Compound 16, Diethyl (4-(((2-methyl-5-nitrophenyl)amino)methyl)benzoyl)glutamate]	127 to 129	–	–	–	–	–	–	–	–	–	–
CNC(=O)c1cc(Oc2ccc(NC(=O)c3ccc(CNc4cc([N+](=O)[O-])ccc4C)cc3)cc2)ccn1 [Compound 17, 4-{[(2-Methyl-5-nitrophenyl)amino]methyl}-N-(4-{[2-(methylcarbamoyl)pyridin-4-yl]oxy}phenyl) benzoate]	231 to 233	49	0	0	0	0	0	0	0	–	selectivity for the gene insulin receptor, in words (InsR; 10 nM, panel of eight receptor tyrosine kinases): high selectivity
Cc1ccc([N+](=O)[O-])cc1NCc1ccc(C(=O)Nc2cccc(C(F)(F)F)c2)cc1 [Compound 18, 4-{[(2-Methyl-5-nitrophenyl)amino]methyl}-N-[3-(trifluoromethyl)phenyl]benzamide]	169 to 171	0	14	56	13	24	0	0	67	comparable to imatinib	–
CNC(=O)c1cc(Oc2ccc(NCc3ccc(C(=O)Nc4cccc(C(F)(F)F)c4)cc3)cc2)ccn1 [Compound 20, 4-{[(4-{[2-(Methylcarbamoyl)pyridin-4-yl]oxy}phenyl)amino]methyl}-N-[3-(trifluoromethyl)phenyl]benzamide]	170 to 171	0	0	57	28	48	56	18	77	comparable to imatinib	–
CCOC(=O)CC[C@H](NC(=O)c1ccc(CNc2ccc(Oc3ccnc(C(=O)NC)c3)cc2)cc1)C(=O)OCC [Compound 21, Diethyl (4-(((4-((2-(methylcarbamoyl)pyridin-4-yl)oxy)phenyl)amino)methyl)benzoyl)glutamate]	162 to 164	–	–	–	–	–	–	–	–	–	–
O=C(Nc1cccc(C(F)(F)F)c1)c1ccc(CNc2nccc(-c3cccnc3)n2)cc1 [Compound 24, 4-({[4-(Pyridin-3-yl)pyrimidin-2-yl]amino}methyl)-N-[3-(trifluoromethyl)phenyl]benzamide]	138 to 141	0	0	44	0	2	24	0	0	comparable to imatinib	–
Cc1ccc([N+](=O)[O-])cc1NC(=O)c1ccc(CNc2nccc(-c3cccnc3)n2)cc1 [Compound 25, 4-({[4-(Pyridin-3-yl)pyrimidin-2-yl]amino}methyl)-N-{[(2-methyl-5-nitrophenyl) benzoate]	175 to 176	–	–	–	–	–	–	–	–	–	–
N-(3-(4-methyl-1H-imidazol-1-yl)-5-(trifluoromethyl)phenyl)-4-(((4-(pyridin-2-yl)pyrimidin-2-yl)amino)methyl)benzamide [Compound 22]	–	–	–	–	–	–	–	–	–	comparable to imatinib	% Inhibition at 10 nM, InsR (InsR; 10 nM): 0%; % Inhibition at 10 nM, HER-2 (HER-2; 10 nM): 0%; % Inhibition at 10 nM, HER-4 (HER-4; 10 nM): 49%; % Inhibition at 10 nM, PDGFRb (PDGFRb; 10 nM): 0%; % Inhibition at 10 nM, KDR (KDR (VEGFR2)): 28%; % Inhibition at 10 nM, EGFR (EGFR; 10 nM): 21%; % Inhibition at 10 nM, IGF1R (IGF1R; 10 nM): 0%; % Inhibition at 10 nM, PDGFRa (PDGFRa; 10 nM): 0%
